Values of other authors in patent EP1337618B1, “CLEANING TABLETS” (UNILEVER N.V., priority 2000, dated 2002).
Where two headings read alike, the source gives them in different places.

[1] = at 20°C, other common materials

Compound | Water Solubility [1] [g/100g] | solubility in water (at 20°C) | Water Solubility (deionised water at 20°C, highly water-soluble materials) [g/100g]
O=BO[O-].[Na+] [Sodium perborate anhydrous] | 3.7 |  | 
O=P(O)(O)OP(=O)(O)OP(=O)(O)O [Sodium tripolyphosphate anhydrous] | 15 |  | 
NC(N)=O [Urea] |  | exceeding 100 gms per 100ml water | >100
